Data reported in patent US7476666B2, “HIV integrase inhibitors” (Merck & Co., Inc., priority 2004, dated 2009).

Tested on: acute HIV infection of T-lymphoid cells
Assay: Inhibition of acute HIV infection of T-lymphoid cells (spread assay)
Type: cell-based
Details: Human immunodeficiency virus 1
Method: An assay for the inhibition of acute HIV infection of T-lymphoid cells (alternatively referred to herein as the “spread assay”) was conducted in accordance with Vacca, J. P. et al., Proc. Natl. Acad. Sci. USA 1994, 91: 4096.

SMILES	IC95 [µM]
CN1CC(C(=O)N2CCCCC2)n2nc(C(=O)NCc3ccc(F)cc3)c(O)c2C1=O (stereo not drawn) [Example 7, N-(4-Fluorobenzyl)-3-hydroxy-5-methyl-4-oxo-7-(piperidin-1-ylcarbonyl)-4,5,6,7-tetrahydropyrazolo[1,5-a]pyrazine-2-carboxamide]	≤ 10
CCNC(=O)c1cc(F)ccc1CNC(=O)c1nn2c(c1O)C(=O)N(C)C[C@@H]2c1ccccc1 [Example 40, (7S)-N-{2-[(Ethylamino)carbonyl]-4-fluorobenzyl}-3-hydroxy-5-methyl-4-oxo-7-phenyl-4,5,6,7-tetrahydropyrazolo[1,5-a]pyrazine-2-carboxamide]	≤ 10
CNC(=O)c1cc(F)ccc1CNC(=O)c1nn2c(c1O)C(=O)N(C)CC2c1ccccn1 (stereo not drawn) [Example 47, N-{4-Fluoro-2-[(methylamino)carbonyl]benzyl}-3-hydroxy-5-methyl-4-oxo-7-pyridin-2-yl-4,5,6,7-tetrahydropyrazolo[1,5-a]pyrazine-2-carboxamide]	≤ 10
CN1CC(c2ccncc2)n2nc(C(=O)NCc3ccc(F)cc3)c(O)c2C1=O (stereo not drawn) [Example 45, N-(4-Fluorobenzyl)-3-hydroxy-5-methyl-4-oxo-7-pyridin-4-yl-4,5,6,7-tetrahydropyrazolo[1,5-a]pyrazine-2-carboxamide]	≤ 10
CNC(=O)c1cc(F)ccc1CNC(=O)c1nn2c(c1O)C(=O)N(C)CC2c1ccccc1 (stereo not drawn) [Example 3, N-(4-Fluoro-2-[(methylamino)carbonyl]benzyl)-3-hydroxy-5-methyl-4-oxo-7-phenyl-4,5,6,7-tetrahydropyrazolo[1,5-a]pyrazine-2-carboxamide]	≤ 10
CNC(=O)c1nn2c(c1O)C(=O)N(Cc1ccc(F)cc1)CC2c1ccccc1 (stereo not drawn) [Example 4, 5-(4-Fluorobenzyl)-3-hydroxy-N-methyl-4-oxo-7-phenyl-4,5,6,7-tetrahydropyrazolo[1,5-a]pyrazine-2-carboxamide]	≤ 10
CC(C)C1CN(C)C(=O)c2c(O)c(C(=O)NCc3ccc(F)cc3)nn21 (stereo not drawn) [Example 48, N-(4-Fluorobenzyl)-3-hydroxy-7-isopropyl-5-methyl-4-oxo-4,5,6,7-tetrahydropyrazolo[1,5-a]pyrazine-2-carboxamide]	≤ 10
Cn1c(=O)c2c(O)c(C(=O)NCc3ccc(F)cc3)nn2c2ccccc21 [Example 32, N-(4-fluorobenzyl)-3-hydroxy-5-methyl-4-oxo-4,5-dihydropyrazolo[1,5-a]quinoxaline-2-carboxamide]	≤ 10
O=C(c1nn2c(c1O)C(=O)N(Cc1ccc(F)cc1)CC2)N1CCC1 [Example 27, 2-(Azetidin-1-ylcarbonyl)-5-(4-fluorobenzyl)-3-hydroxy-4-oxo-4,5,6,7-tetrahydropyrazolo[1,5-a]pyrazine]	≤ 10
CN1CC(c2ccncc2)n2nc(C(=O)NCc3ccc(F)c(Cl)c3)c(O)c2C1=O (stereo not drawn) [Example 46, N-(3-Chloro-4-fluorobenzyl)-3-hydroxy-5-methyl-4-oxo-7-pyridin-4-yl-4,5,6,7-tetrahydropyrazolo[1,5-a]pyrazine-2-carboxamide]	≤ 10
CCCCNC(=O)c1nn2c(c1O)C(=O)N(Cc1ccc(F)cc1)CC2 [Example 24, N-Butyl-5-(4-fluorobenzyl)-3-hydroxy-4-oxo-4,5,6,7-tetrahydropyrazolo[1,5-a]pyrazine-2-carboxamide]	≤ 10
CN1CC(c2cccc(Br)c2)n2nc(C(=O)NCc3ccc(F)cc3)c(O)c2C1=O (stereo not drawn) [Example 43, 7-(3-Bromophenyl)-N-(4-fluorobenzyl)-3-hydroxy-5-methyl-4-oxo-4,5,6,7-tetrahydropyrazolo[1,5-a]pyrazine-2-carboxamide]	≤ 10
O=C(NCCN1CCOCC1)c1nn2c(c1O)C(=O)N(Cc1ccc(F)cc1)CC2 [Example 23, 5-(4-Fluorobenzyl)-3-hydroxy-N-[2-(4-morpholinyl)ethyl]-4-oxo-4,5,6,7-tetrahydropyrazolo[1,5-a]pyrazine-2-carboxamide]	≤ 10
CN1C[C@@H](c2ccccc2)n2nc(C(=O)NCc3ccc(F)cc3C(=O)NC3CC3)c(O)c2C1=O [Example 35, (7R)-N-{2-[(Cyclopropylamino)carbonyl]-4-fluorobenzyl}-3-hydroxy-5-methyl-4-oxo-7-phenyl-4,5,6,7-tetrahydropyrazolo[1,5-a]pyrazine-2-carboxamide]	≤ 10
CN1CCn2nc(C(=O)NCc3ccc(F)cc3S(C)(=O)=O)c(O)c2C1=O [Example 15, N-[4-Fluoro-2-(methylsulfonyl)benzyl]-3-hydroxy-5-methyl-4-oxo-4,5,6,7-tetrahydropyrazolo[1,5-a]pyrazine-2-carboxamide]	≤ 10
O=C(NCc1ccc(Cl)c(Cl)c1)c1nn2c(c1O)C(=O)N(CCN1CCOCC1)CC2 [Example 22, N-(3,4-Dichlorobenzyl)-3-hydroxy-5-[2-(4-morpholinyl)ethyl]-4-oxo-4,5,6,7-tetrahydropyrazolo[1,5-a]pyrazine-2-carboxamide]	≤ 10
CN(C)C(=O)c1cc(F)ccc1CNC(=O)c1nn2c(c1O)C(=O)N(C)C[C@H]2c1ccccc1 [Example 37, (7R)-N-{2-[(Dimethylamino)carbonyl]-4-fluorobenzyl}-3-hydroxy-5-methyl-4-oxo-7-phenyl-4,5,6,7-tetrahydropyrazolo[1,5-a]pyrazine-2-carboxamide]	≤ 10

SMILES	IC95 [µM]
CN(C)C(=O)C1(C)CN(C)C(=O)c2c(O)c(C(=O)NCc3ccc(F)cc3)nn21 (stereo not drawn) [Example 8, 5,7-Dimethyl-N-(4-fluorobenzyl)-3-hydroxy-7-(dimethylaminocarbonyl)-4-oxo-4,5,6,7-tetrahydropyrazolo[1,5-a]pyrazine-2-carboxamide]	≤ 10
COC(=O)c1nn2c(c1O)C(=O)N(Cc1ccc(F)cc1)CCC2 [Example 30, Methyl 5-(4-Fluorobenzyl)-3-hydroxy-4-oxo-5,6,7,8-tetrahydro-4H-pyrazolo[1,5-a][1,4]diazepine-2-carboxylate]	≤ 10
Cc1cn(C)c(=O)c2c(O)c(C(=O)NCc3ccc(F)cc3)nn12 [Example 10, 5,7-Dimethyl-N-(4-fluorobenzyl)-3-hydroxy-4-oxo-4,5-dihydropyrazolo[1,5-a]pyrazine-2-carboxamide]	≤ 10
CN1C[C@H](c2ccccc2)n2nc(C(=O)NCc3ccc(F)cc3C(N)=O)c(O)c2C1=O [Example 42, (7S)-N-[2-(Aminocarbonyl)-4-fluorobenzyl]-3-hydroxy-5-methyl-4-oxo-7-phenyl-4,5,6,7-tetrahydropyrazolo[1,5-a]pyrazine-2-carboxamide]	≤ 10
CN1C[C@@H](c2ccccc2)n2nc(C(=O)NCc3ccc(F)cc3C(N)=O)c(O)c2C1=O [Example 41, (7R)-N-[2-(Aminocarbonyl)-4-fluorobenzyl]-3-hydroxy-5-methyl-4-oxo-7-phenyl-4,5,6,7-tetrahydropyrazolo[1,5-a]pyrazine-2-carboxamide]	≤ 10
CC1Cn2nc(C(=O)NCc3ccc(F)cc3)c(O)c2C(=O)N1C (stereo not drawn) [Example 5, 5,6-Dimethyl-N-(4-fluorobenzyl)-3-hydroxy-4-oxo-4,5,6,7-tetrahydropyrazolo[1,5-a]pyrazine-2-carboxamide]	≤ 10
CN(C)C(=O)c1cc(F)ccc1CNC(=O)c1nn2c(c1O)C(=O)N(C)C[C@@H]2c1ccccc1 [Example 38, (7S)-N-{2-[(Dimethylamino)carbonyl]-4-fluorobenzyl}-3-hydroxy-5-methyl-4-oxo-7-phenyl-4,5,6,7-tetrahydropyrazolo[1,5-a]pyrazine-2-carboxamide]	≤ 10
CN(Cc1ccc(F)cc1)C(=O)c1nn2c(c1O)C(=O)N(C)CC2 [Example 13, 2-[4-fluorobenzyl(methyl)aminocarbonyl]-3-hydroxy-5-methyl-4-oxo-4,5,6,7-tetrahydropyrazolo[1,5-a]pyrazine-2-carboxamide]	≤ 10
CN1CC(c2cccnc2)n2nc(C(=O)NCc3ccc(F)cc3)c(O)c2C1=O (stereo not drawn) [Example 31, N-(4-fluorobenzyl)-3-hydroxy-5-methyl-4-oxo-7-pyridin-3-yl-4,5,6,7-tetrahydropyrazolo[1,5-a]pyrazine-2-carboxamide]	≤ 10
O=C(NCc1ccc(Cl)c(Cl)c1)c1nn2c(c1O)C(=O)N(CC1CC1)CC2 [Example 21, 5-Cyclopropylmethyl-N-(3,4-dichlorobenzyl)-3-hydroxy-4-oxo-4,5,6,7-tetrahydropyrazolo[1,5-a]pyrazine-2-carboxamide]	≤ 10
CN1CC(CN2CCCCC2)n2nc(C(=O)NCc3ccc(F)cc3)c(O)c2C1=O (stereo not drawn) [Example 9, N-(4-fluorobenzyl)-3-hydroxy-5-methyl-4-oxo-7-(piperidin-1-ylmethyl)-4,5,6,7-tetrahydropyrazolo[1,5-a]pyrazine-2-carboxamide]	≤ 10
CN1CC(c2ccccc2)n2nc(C(=O)NCc3ccc(F)cc3)c(O)c2C1=O (stereo not drawn) [Example 2, N-(4-Fluorobenzyl)-3-hydroxy-5-methyl-4-oxo-7-phenyl-4,5,6,7-tetrahydropyrazolo[1,5-a]pyrazine-2-carboxamide]	≤ 10
CNC(=O)c1cc(F)ccc1CNC(=O)c1nn2c(c1O)C(=O)N(C)CC2C(C)C (stereo not drawn) [Example 49, N-{4-Fluoro-2-[(methylamino)carbonyl]benzyl}-3-hydroxy-7-isopropyl-5-methyl-4-oxo-4,5,6,7-tetrahydropyrazolo[1,5-a]pyrazine-2-carboxamide]	≤ 10
O=C(NCc1ccc(Cl)c(Cl)c1)c1nn2c(c1O)C(=O)N(CC(=O)N1CCOCC1)CC2 [Example 20, N-(3,4-Dichlorobenzyl)-3-hydroxy-5-[2-(4-morpholinyl)-2-oxoethyl]-4-oxo-4,5,6,7-tetrahydropyrazolo[1,5-a]pyrazine-2-carboxamide]	≤ 10
O=C(NCc1ccc(F)cc1)c1nn2c(c1O)C(=O)NCCC2 [Example 29, N-(4-Fluorobenzyl)-3-hydroxy-4-oxo-5,6,7,8-tetrahydro-4H-pyrazolo[1,5-a][1,4]diazepine-2-carboxamide]	≤ 10
Cc1csc(C2CN(C)C(=O)c3c(O)c(C(=O)NCc4ccc(F)cc4)nn32)n1 (stereo not drawn) [Example 11, N-(4-Fluorobenzyl)-3-hydroxy-5-methyl-7-(4-methyl-1,3-thiazol-2-yl)-4-oxo-4,5,6,7-tetrahydropyrazolo[1,5-a]pyrazine-2-carboxamide]	≤ 10
